Consider 1 compound from patent US10702526B2, “Inhibitors of immune checkpoint modulators and related methods” (eFFECTOR Therapeutics, Inc., priority 2015, dated 2020).

The structures appear in SMILES notation.

Series [1] has as its system CT26 (mouse colon carcinoma) tumor. The experiment in a line: CT26 colon carcinoma allograft tumor model in BALB/c mice. Format: in vivo. How it is done: To evaluate the efficacy of a MNK-specific inhibitor in cancer, an in vivo allograft tumor model was used. Briefly, CT26 (mouse colon carcinoma) cells grown in DMEM supplemented with 10% FBS were harvested during exponential growth and counted for tumor inoculation in immune competent BALB/c mice. Each mouse was inoculated with 0.3×10^6 CT26 tumor cells in the right flank region in a 0.2 ml volume comprising a 1:1 ratio (volume to volume) of cells in growth media (0.1 ml) and Matrigel® matrix (0.1 ml) (BD Biosciences, San Jose Calif.). Tumors were allowed to grow to 100-200 mm^3 prior to study initiation. Before beginning treatment, all animals were weighed and tumor volumes measured using a caliper. Since the tumor volume can affect the effectiveness of any given treatment, mice were randomly assigned into vehicle and test article treatment groups after tumors had reached a similar size. Each study group contained 8 mice, with each group receiving one of the following treatments: (1) Compound 107 in 10% 1-methyl-2-pyrrolidinone and 90% propylene glycol and given at a dose of 1 mg/kg orally, once a day; (2) anti-PD1 (BioXcell, Lebanon, N.H.) in PBS and given at a dose of 0.5 mg/mouse intraperitoneally, once every four days (as described by Wei et al., PLoS One 8:e84927, 2013); (3) a combination of Compound 107 at 1 mg/kg orally, once a day and anti-PD1 at 0.5 mg/mouse intraperitoneally, once every four days; (4) vehicle only control.
During the study, tumor size (for subcutaneous implants) was measured in length and width with a caliper twice a week. The tumor volume was calculated by the formula L×W×W/2 according to NCI standards. Tumor growth inhibition (TGI %) is an indication of anti-tumor effectiveness, which is expressed as follows: TGI (%)=100×(1−(ΔT/ΔC)). ΔT and ΔC were the change in mean tumor volume of the treated and control groups, relative to mean tumor volume at the start of treatment. All experiments continued until group mean tumor volume reached about 2000 to 2,500 mm^3 in size. […] Also, the body weight for each mouse was collected at least once prior to the study start, and twice a week during the study. Body weight change is an indication of tolerability, so percent body weight change is calculated as follows: body weight change (%)=100×(body weightend−body weightstart)/body weightstart. Mice were also observed daily for mortality, mobility, hunched posture, piloerection, or other signs of distress while dosing. If a mouse lost greater than 20% body weight due to toxicity, or the combination of toxicity and tumor burden, it was euthanized. If there was apparent toxicity, the mice were taken off treatment and clinical observation and body weight measurement were done daily.

Series [2] deals with CT26 tumor. In words: CT26 tumor re-challenge of previously treated mice. Format: in vivo, mouse. The protocol: Previously treated allograft mice that responded to therapy or were tumor-free from each treatment group (8 days post-treatment) were tested for development of long-term immune memory by re-implanting new CT26 tumors and assessing for tumor growth compared to naïve BALB/c mice. Briefly, treated mice were re-implanted and naïve were implanted for the first time with tumor cells in the left flank region in 0.1 ml of growth media and an equal 0.1 ml volume ratio of Matrigel® matrix (1:1 volume to volume ratio), as before. Tumors in these untreated mice were measured following implantation as described herein.

The mark [3] stands for this setting: 15 days after initiation of dosing.
Setting [4] is: 22 days after initiation of dosing.

For `Cc1cc(Nc2cc(N)ncn2)c(=O)n2c1C(=O)NC21CCCCC1.Cl` [Compound 107], the “Mean Tumor Volume (mm^3) ± SEM” value is recorded as 522.3 ± 174.4; mm^3 in series [1] (setting [3]), 1260.8 ± 499.1 mm^3 in series [1] (setting [4]) and 22.4 ± 4.5 mm^3 in series [2] (8 days after tumor implant). Besides, the “Tumor Growth Inhibition (% TGI)” value in series [1] (setting [3]) is “about 34%”; in series [1] (15 days after initiation of dosing, listed as Cmpd 107) it was 34%; in series [1] (setting [4]) it was “about 55%”; in series [1] (22 days after initiation of dosing, listed as Cmpd 107), 54%. In addition, the “Body Weight Change Average %” value in series [1] (final day of study (day 22)) is reported as 13.9%. The “Tumor Formation” value in series [2] (animals with measurable tumor / group, no further drug treatment) is on record as 0/4.
